Data on 22 molecules can be found in patent publication US9073853B2, “Cycloalkane carboxylic acid derivatives as CXCR3 receptor antagonists” (Sanofi, priority 2011, dated 2015).

Molecules are shown by their SMILES.

Sequence of human CXCR3-A receptor (P49682 whole entry): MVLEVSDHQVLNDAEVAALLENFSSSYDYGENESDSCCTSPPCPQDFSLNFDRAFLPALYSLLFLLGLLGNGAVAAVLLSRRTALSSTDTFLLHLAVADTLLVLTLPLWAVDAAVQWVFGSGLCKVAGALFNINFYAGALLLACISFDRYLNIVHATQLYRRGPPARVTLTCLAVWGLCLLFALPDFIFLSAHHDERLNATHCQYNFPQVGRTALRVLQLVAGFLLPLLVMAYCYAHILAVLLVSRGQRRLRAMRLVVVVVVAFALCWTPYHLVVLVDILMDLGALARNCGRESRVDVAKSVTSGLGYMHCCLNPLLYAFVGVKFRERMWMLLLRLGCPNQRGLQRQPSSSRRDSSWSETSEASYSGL

For this assay, the target named is human CXCR3-A receptor (Homo sapiens (Human), UniProt P49682). The assay is described as follows: 125I-CXCL10 competition radioligand binding assay. The conditions noted are these: displacement of 125I-CXCL10 from membranes of CHO cells expressing human recombinant CXCR3-A. On the procedure:
IC50 values were determined for the test compounds and used to explore the structure-activity relationships (SAR). […] This cell line was registered in Sanofi-Aventis cell line bank. […] Cell suspension was diluted with PBS and cells were collected with centrifugation at 230 g for 10 minutes at 10° C. with a Juan centrifuge. […] The supernatant was carefully collected and centrifuged at 100,000×g for 60 min at 4° with a Beckman Avanti J30 centrifuge. […] Protein concentration was determined with Bio-Rad protein assay (Cat No 500-0006). Membrane aliquots were stored at -80° C. […] The composition of the binding assay buffer was determined in a course of detailed optimization procedure. […] Binding reaction was initiated by adding of membranes (10-20 μg proteins, approximately 5×10^5 cell equivalents) to the reaction mixture. After 60 minutes of incubation at 25° C. the reaction was terminated by rapid filtration over GF/B glass fiber filters that were pre-soaked with 0.5% polyethyleneimine (Fluka Analytical, P3143) for 1 hour, using a Skatron cell harvester device. Filters then were washed with 8 ml of ice-cold wash buffer (modified binding buffer in which BSA was omitted and the concentration of NaCl was adjusted to 500 mM concentration). The radioactivity retained on the filters was measured by a Wizard 1470 Automatic Gamma counter. Test compounds were dissolved prior to the binding assay at a concentration of 10 mM in DMSO. Stock solutions were stored at -20° C. for not longer than 3 months. […] Before adding these solutions of test compound to the binding reaction mixture, an intermediate dilution procedure was applied, in which 30 μL of each solution sample was transferred into a dilution tube containing 970 μL of binding assay buffer. […] The IC50 values and Hill slopes for competition binding data were obtained using nonlinear four-parametric curve fitting method.
For orientation: Loss of bound radioactivity is the signal in a displacement assay; it reports binding, not function.
For orientation: IC50 means the concentration that inhibits the measured activity by half. Turning to `COc1cc(CN(C[C@H]2CC[C@H](C(=O)O)CC2)C(C)c2ccc(Cl)c(C)c2)ccc1OCCN1C(=O)CCC1=O` (stereo partly drawn) [Example 25, trans-4-[([1-(4-Chloro-3-methyl-phenyl)-ethyl]-{4-[2-(2,5-dioxo-pyrrolidin-1-yl)-ethoxy]-3-methoxy-benzyl}-amino)-methyl]-cyclohexanecarboxylic acid], the IC50 was 25 nM.
The same measure for `COc1cc(CN(C[C@H]2CC[C@H](C(=O)O)CC2)[C@@H](C)c2ccc(Cl)c(C)c2)ccc1OCCN1C(=O)CCC1=O` [Example 26, trans-4-[([(S)-1-(4-Chloro-3-methyl-phenyl)-ethyl]-{4-[2-(2,5-dioxo-pyrrolidin-1-yl)-ethoxy]-3-methoxy-benzyl}-amino)-methyl]-cyclohexanecarboxylic acid]: 64 nM; for `COc1cc(CN(C[C@H]2CC[C@H](C(=O)O)CC2)[C@H](C)c2ccc(Cl)c(C)c2)ccc1OCCN1C(=O)CCC1=O` [Example 27, trans-4-[([(R)-1-(4-Chloro-3-methyl-phenyl)-ethyl]-{4-[2-(2,5-dioxo-pyrrolidin-1-yl)-ethoxy]-3-methoxy-benzyl}-amino)-methyl]-cyclohexanecarboxylic acid]: 80 nM; for `CCC(c1ccc2c(c1)CCO2)N(Cc1ccc(OCCN2C(=O)CN(C)C2=O)c(OC)c1)C[C@H]1CC[C@H](C(=O)O)CC1` (stereo partly drawn) [Example 28, trans-4-[([1-(2,3-Dihydro-benzofuran-5-yl)-propyl]-{3-methoxy-4-[2-(3-methyl-2,5-dioxo-imidazolidin-1-yl)-ethoxy]-benzyl}-amino)-methyl]-cyclohexanecarboxylic acid]: 81 nM.
The same measure for `Cc1cc(CN(C[C@H]2CC[C@H](C(=O)O)CC2)C2CCc3cc(Cl)ccc32)ccc1OCCN1C(=O)CCC1=O` (stereo partly drawn) [Example 29, trans-4-[((5-Chloro-indan-1-yl)-{4-[2-(2,5-dioxo-pyrrolidin-1-yl)-ethoxy]-3-methyl-benzyl}-amino)-methyl]-cyclohexanecarboxylic acid]: 150 nM; for `Cc1cc(CN(C[C@H]2CC[C@H](C(=O)O)CC2)[C@H]2CCc3cc(Cl)ccc32)ccc1OCCN1C(=O)CCC1=O` [Example 30, trans-4-[(((S)-5-Chloro-indan-1-yl)-{4-[2-(2,5-dioxo-pyrrolidin-1-yl)-ethoxy]-3-methyl-benzyl}-amino)-methyl]-cyclohexanecarboxylic acid]: 53 nM.
The same measure for `Cc1cc(CN(C[C@H]2CC[C@H](C(=O)O)CC2)[C@@H]2CCc3cc(Cl)ccc32)ccc1OCCN1C(=O)CCC1=O` [Example 31, trans-4-[(((R)-5-Chloro-indan-1-yl)-{4-[2-(2,5-dioxo-pyrrolidin-1-yl)-ethoxy]-3-methyl-benzyl}-amino)-methyl]-cyclohexanecarboxylic acid]: 360 nM.
`C[C@@H](c1ccc(Cl)cc1)N(Cc1ccc(OCCN2C(=O)CCC2=O)c(Cl)c1)C[C@H]1CC[C@H](C(=O)O)CC1` [Example 32, trans-4-({{3-Chloro-4-[2-(2,5-dioxo-pyrrolidin-1-yl)-ethoxy]-benzyl}-[(S)-1-(4-chloro-phenyl)-ethyl]-amino}-methyl)-cyclohexanecarboxylic acid]: the IC50 amounted to 123 nM.
Consider `Cc1cc(CN(C[C@H]2CC[C@H](C(=O)O)CC2)C(C)c2ccc3c(c2)CCO3)ccc1OCCN1C(=O)CSC1=O` (stereo partly drawn) [Example 33, trans-4-[([1-(2,3-Dihydro-benzofuran-5-yl)-ethyl]-{4-[2-(2,4-dioxo-thiazolidin-3-yl)-ethoxy]-3-methyl-benzyl}-amino)-methyl]-cyclohexanecarboxylic acid], for which the IC50 turned out to be 42 nM.
Then `COc1cc(CN(C[C@H]2CC[C@H](C(=O)O)CC2)[C@@H](C)c2ccc(Cl)cc2)ccc1OCCN1C(=O)CSC1=O` [Example 34, trans-4-[([(S)-1-(4-Chloro-phenyl)-ethyl]-{4-[2-(2,4-dioxo-thiazolidin-3-yl)-ethoxy]-3-methoxy-benzyl}-amino)-methyl]-cyclohexanecarboxylic acid], with 22 nM; and `COc1cc(CN(C[C@H]2CC[C@H](C(=O)O)CC2)C(C)c2ccc3c(c2)CCO3)ccc1/C=C/CN1C(=O)CCC1=O` (stereo partly drawn) [Example 35, trans-4-[([1-(2,3-Dihydro-benzofuran-5-yl)-ethyl]-{4-[(E)-3-(2,5-dioxo-pyrrolidin-1-yl)-propenyl]-3-methoxy-benzyl}-amino)-methyl]-cyclohexanecarboxylic acid], with 1430 nM; and `COc1cc(CN(C[C@H]2CC[C@H](C(=O)O)CC2)[C@@H](C)c2ccc(Cl)cc2)ccc1OCCN1C(=O)COC1=O` [Example 36, trans-4-[([(S)-1-(4-Chloro-phenyl)-ethyl]-{4-[2-(2,4-dioxo-oxazolidin-3-yl)-ethoxy]-3-methoxy-benzyl}-amino)-methyl]-cyclohexanecarboxylic acid], with 28 nM.
Regarding `COc1cc(CN(C[C@H]2CC[C@H](C(=O)O)CC2)[C@@H](C)c2ccc(Cl)cc2)ccc1OCCn1c(=O)ccn(C)c1=O` [Example 37, trans-4-[([(S)-1-(4-Chloro-phenyl)-ethyl]-{3-methoxy-4-[2-(3-methyl-2,6-dioxo-3,6-dihydro-2H-pyrimidin-1-yl)-ethoxy]-benzyl}-amino)-methyl]-cyclohexanecarboxylic acid], the IC50 was 76 nM.
The same measure for `COc1cc(CN(C[C@H]2CC[C@H](C(=O)O)CC2)C(C)c2ccc3c(c2)CCO3)ccc1OCCN1C(=O)CCCC1=O` (stereo partly drawn) [Example 38, trans-4-[([1-(2,3-Dihydro-benzofuran-5-yl)-ethyl]-{4-[2-(2,6-dioxo-piperidin-1-yl)-ethoxy]-3-methoxy-benzyl}-amino)-methyl]-cyclohexanecarboxylic acid]: 163 nM.
Then `Cc1cc(CN(C[C@H]2CC[C@H](C(=O)O)CC2)[C@@H](C)c2ccc(Cl)cc2)ccc1OCCN1C(=O)CN(C)C1=O` [Example 39, trans-4-[([(S)-1-(4-Chloro-phenyl)-ethyl]-{3-methyl-4-[2-(3-methyl-2,5-dioxo-imidazolidin-1-yl)-ethoxy]-benzyl}-amino)-methyl]-cyclohexanecarboxylic acid], with 99 nM; and `COc1cc(CN(CC2CCCC(C(=O)O)C2)C(C)c2ccc3c(c2)CCO3)ccc1OCCN1C(=O)CCC1=O` (stereo not shown) [Example 41, 3-[([1-(2,3-Dihydro-benzofuran-5-yl)-ethyl]-{4-[2-(2,5-dioxo-pyrrolidin-1-yl)-ethoxy]-3-methoxy-benzyl}-amino)-methyl]-cyclohexanecarboxylic acid], with 131 nM; and `COc1cc(CN(C[C@H]2CC[C@H](C(=O)O)CC2)C2CCc3cc(Cl)c(C)cc32)ccc1OCCN1C(=O)CCC1=O` (stereo partly drawn) [Example 42, trans-4-[((5-Chloro-6-methyl-indan-1-yl)-{4-[2-(2,5-dioxo-pyrrolidin-1-yl)-ethoxy]-3-methoxy-benzyl}-amino)-methyl]-cyclohexanecarboxylic acid], with 87 nM.
Then `COc1cc(CN(C[C@H]2CC[C@H](C(=O)O)CC2)C2CCc3c2ccc(Cl)c3C)ccc1OCCN1C(=O)CCC1=O` (stereo partly drawn) [Example 43, trans-4-[((5-Chloro-4-methyl-indan-1-yl)-{4-[2-(2,5-dioxo-pyrrolidin-1-yl)-ethoxy]-3-methoxy-benzyl}-amino)-methyl]-cyclohexanecarboxylic acid], with 68 nM; and `COc1cc(CN(C[C@H]2CC[C@H](C(=O)O)CC2)C2CCc3cc(Cl)ccc32)ccc1CCCN1C(=O)CCC1=O` (stereo partly drawn) [Example 44, trans-4-[((5-Chloro-indan-1-yl)-{4-[3-(2,5-dioxo-pyrrolidin-1-yl)-propyl]-3-methoxy-benzyl}-amino)-methyl]-cyclohexanecarboxylic acid], with 410 nM.
For the molecule `CC(c1ccc2c(c1)CCO2)N(Cc1ccc(CCCN2C(=O)CCC2=O)c(Cl)c1)C[C@H]1CC[C@H](C(=O)O)CC1` (stereo partly drawn) [Example 47, trans-4-({{3-Chloro-4-[3-(2,5-dioxo-pyrrolidin-1-yl)-propyl]-benzyl}-[1-(2,3-dihydro-benzofuran-5-yl)-ethyl]-amino}-methyl)-cyclohexanecarboxylic acid], the IC50 came to 800 nM.
Then `COc1cc(CN(C[C@H]2CC[C@H](C(=O)O)CC2)C2CCc3cc(Cl)ccc32)ccc1OCCn1c(=O)ccn(C)c1=O` (stereo partly drawn) [Example 48, trans-4-[((5-Chloro-indan-1-yl)-{3-methoxy-4-[2-(3-methyl-2,6-dioxo-3,6-dihydro-2H-pyrimidin-1-yl)-ethoxy]-benzyl}-amino)-methyl]-cyclohexanecarboxylic acid], with 409 nM; and `COc1cc(CN(C[C@H]2CC[C@H](C(=O)O)CC2)C(C)c2ccc3c(c2)CCO3)ccc1C1CC1CN1C(=O)CCC1=O` (stereo partly drawn) [Example 49, trans-4-[([1-(2,3-Dihydro-benzofuran-5-yl)-ethyl]-{4-[2-(2,5-dioxo-pyrrolidin-1-ylmethyl)-cyclopropyl]-3-methoxy-benzyl}-amino)-methyl]-cyclohexanecarboxylic acid], with 746 nM.
